Measured values as given in patent US7205304B2, “Sulfonyl-Derivatives as novel inhibitors of histone deacetylase” (Janssen Pharmaceutica N.V., priority 2002, dated 2007).
In brackets after ≈: the same amount, converted by molar mass.

What was measured:
[1] = molecular target: histone deacetylase (HeLa nuclear extracts); assay: In vitro assay for inhibition of histone deacetylase; type: biochemical; settings: [3H]acetylated histone H4 peptide substrate
Description: The in vitro assay for inhibition of histone deacetylase (see example C.1) measures the inhibition of HDAC enzymatic activity obtained with the compounds of formula (I).
HeLa nuclear extracts (supplier: Biomol) were incubated at 60 μg/ml with 2×10^−8 M of radiolabeled peptide substrate. As a substrate for measuring HDAC activity a synthetic peptide, i.e. the amino acids 14–21 of histone H4, was used. The substrate is biotinylated at the NH2-terminal part with a 6-aminohexanoic acid spacer, and is protected at the COOH-terminal part by an amide group and specifically [^3H]acetylated at lysine 16. The substrate, biotin-(6-aminohexanoic)Gly-Ala-([^3H]-acetyl-Lys-Arg-His-Arg-Lys-Val-NH2), was added in a buffer containing 25 mM Hepes, 1 M sucrose, 0.1 mg/ml BSA and 0.01% Triton X-100 at pH 7.4. After 30 min the deacetylation reaction was terminated by the addition of HCl and acetic acid. (final concentration 0.035 mM and 3.8 mM respectively). After stopping the reaction, the free ^3H-acetate was extracted with ethylacetate. After mixing and centrifugation, the radioactivity in an aliquot of the upper (organic) phase was counted in a β-counter.
For each experiment, controls (containing HeLa nuclear extract and DMSO without compound), a blank incubation (containing DMSO but no HeLa nuclear extract or compound) and samples (containing compound dissolved in DMSO and HeLa nuclear extract) were run in parallel. In first instance, compounds were tested at a concentration of 10^−5M. […] In each test the blank value was substracted from both the control and the sample values. The control sample represented 100% of substrate deactylation. For each sample the radioactivity was expressed as a percentage of the mean value of the controls. […] Herein the effects of test compounds are expressed as pIC50 (the negative log value of the IC50-value).

[2] = tested on: A2780 ovarian carcinoma cells; assay: Antiproliferative activity on A2780 cells (MTT); type: cell-based, human; settings: four days of incubation; for IC50: Homo sapiens, A2780, 96 h, read-out: Cellular activity pIC50 (converted)
Description: Cellular activity of the compounds of formula (I) was determined on A2780 tumour cells using a colorimetric assay for cell toxicity or survival (Mosmann Tim, Journal of Immunological Methods 65: 55–63, 1983)(see example C.2).
All compounds tested were dissolved in DMSO and further dilutions were made in culture medium. Final DMSO concentrations never exceeded 0.1% (v/v) in cell proliferation assays. Controls contained A2780 cells and DMSO without compound and blanks contained DMSO but no cells. MTT was dissolved at 5 mg/ml in PBS. A glycine buffer comprised of 0.1 M glycine and 0.1 M NaCl buffered to pH 10.5 with NaOH (1 N) was prepared (all reagents were from Merck).
The human A2780 ovarian carcinoma cells (a kind gift from Dr. T. C. Hamilton [Fox Chase Cancer Centre, Pennsylvania, USA]) were cultured in RPMI 1640 medium supplemented with 2 mM L-glutamine, 50 μg/ml gentamicin and 10% fetal calf serum. Cells were routinely kept as monolayer cultures at 37° C. in a humidified 5% CO2 atmosphere. Cells were passaged once a week using a trypsin/EDTA solution at a split ratio of 1:40. All media and supplements were obtained from Life Technologies. Cells were free of mycoplasma contamination as determined using the Gen-Probe Mycoplasma Tissue Culture kit (supplier: BioMérieux).
Cells were seeded in NUNC™ 96-well culture plates (Supplier: Life Technologies) and allowed to adhere to the plastic overnight. Densities used for plating were 1500 cells per well in a total volume of 200 μl medium. After cell adhesion to the plates, medium was changed and drugs and/or solvents were added to a final volume of 200 μl. Following four days of incubation, medium was replaced by 200 μl fresh medium and cell density and viability was assessed using an MTT-based assay. To each well, 25 μl MTT solution was added and the cells were further incubated for 2 hours at 37° C. The medium was then carefully aspirated and the blue MTT-formazan product was solubilized by addition of 25 μl glycine buffer followed by 100 μl of DMSO. […] Within an experiment, the results for each experimental condition are the mean of 3 replicate wells. For initial screening purposes, compounds were tested at a single fixed concentration of 10^−6 M. For active compounds, the experiments were repeated to establish full concentration-response curves. For each experiment, controls (containing no drug) and a blank incubation (containing no cells or drugs) were run in parallel. The blank value was subtracted from all control and sample values. For each sample, the mean value for cell growth (in absorbance units) was expressed as a percentage of the mean value for cell growth of the control. […] Herein the effects of test compounds are expressed as pIC50 (the negative log value of the IC50-value).

[3] = Kinetic solubility in aqueous media (nephelometry); type: physicochemical; settings: phosphate citrate buffer, pH 7.4, aqueous buffer, kinetic from dmso stock, phosphate citrate buffer pH 7.4, turbidity of three dilution steps; read-out: Solubility Score
Description: Kinetic solubility in aqueous media measures the ability of a compound to stay in aqueous solution upon dilution (see example C.3).
DMSO-stock solutions are diluted with a single aqueous buffer solvent in 3 consecutive steps. For every dilution turbidity is measured with a nephelometer.
In the first dilution step, 10 μl of a concentrated stock-solution of the active compound, solubilized in DMSO (5 mM), was added to 100 μl phosphate citrate buffer pH 7.4 and mixed. In the second dilution step, an aliquot (20 μl) of the first dilution step was further dispensed in 100 μl phosphate citrate buffer pH 7.4 and mixed. Finally, in the third dilution step, a sample (20 μl) of the second dilution step was further diluted in 100 μl phosphate citrate buffer pH 7.4 and mixed. All dilutions were performed in 96-well plates. Immediately after the last dilution step the turbidity of the three consecutive dilution steps were measured with a nephelometer. Dilution was done in triplicate for each compound to exclude occasional errors. Based on the turbidity measurements a ranking is performed into 3 classes. Compounds with high solubility obtained a score of 3 and for this compounds the first dilution is clear. Compounds with medium solubility obtained a score of 2. For these compounds the first dilution is unclear and the second dilution is clear. […] The solubility of 112 compounds was measured.

Enzyme activity pIC50 [1] | IC50 [2] [nM] | solubility [3] [µM] | Cellular activity pIC50 [2] | Compound
<5 | 1740 |  |  | O=C(NO)c1cnc(N2CCN(S(=O)(=O)c3ccc4ccccc4c3)CC2)nc1N1CCN(S(=O)(=O)c2ccc3ccccc3c2)CC1 [Compound 117]
7.162 | 461 |  |  | O=C(NO)c1cnc(N2CCN(S(=O)(=O)c3ccc(-c4ccc5[nH]ccc5c4)cc3)CC2)nc1 [Compound 132]
7.612 | 55.2 |  |  | O=C(NO)c1cnc(N2CCN(S(=O)(=O)c3ccc(-c4ccc(CO)cc4)cc3)CC2)nc1 [Compound 139]
7.739 | 99.8 |  |  | Nc1ccc(-c2ccc(S(=O)(=O)N3CCN(c4ncc(C(=O)NO)cn4)CC3)cc2)cc1 [Compound 140]
7.125 | 991 |  |  | O=C(NO)c1cnc(N2CCCN(S(=O)(=O)c3ccc4ccccc4c3)CC2)nc1 [Compound 141]
8.565 | 119 |  |  | CN(C)CCN(C)Cc1sccc1-c1ccc(S(=O)(=O)N2CCN(c3ncc(C(=O)NO)cn3)CC2)cc1 [Compound 146]
8.7 | 275 |  |  | O=C(NO)c1cnc(N2CCN(S(=O)(=O)c3ccc(-c4ccccc4OCCN4CCOCC4)cc3)CC2)nc1 [Compound 153]
7.939 | 87.1 |  |  | O=C(NO)c1cnc(N2CCN(S(=O)(=O)c3ccc(-c4ccc(OCCN5CCOCC5)cc4)cc3)CC2)nc1 [Compound 155]
8.568 | 30 |  |  | CN(C)CCCOc1ccc(-c2ccc(S(=O)(=O)N3CCN(c4ncc(C(=O)NO)cn4)CC3)cc2)cc1 [Compound 156]
 | 117 |  | 7.039 | O=C(NO)c1cnc(N2CCN(S(=O)(=O)c3ccc(-c4ccc(CN5CCOCC5)cc4)cc3)CC2)nc1 [Compound 162]
8.553 | 42.7 |  |  | CN(C)Cc1ccc(-c2ccc(S(=O)(=O)N3CCN(c4ncc(C(=O)NO)cn4)CC3)cc2)cc1 [Compound 163]
<5 | > 10000 |  |  | O=C(NO)c1cnc(N2CCN(S(=O)(=O)c3ccc(-c4cc(C(F)(F)F)cc(C(F)(F)F)c4)cc3)CC2)nc1 [Compound 180]

More lines, now with the values behind:

Compound | Enzyme activity pIC50 [1] | IC50 [2] [nM] | solubility [3] [µM] | Cellular activity pIC50 [2]
O=C(NO)c1ccc(N2CCCN(S(=O)(=O)c3ccc4ccccc4c3)CC2)cc1 [Compound 1] | 6.482 | > 10000 |  | 
O=C(NO)c1ccc(N2CCN(S(=O)(=O)c3ccc4ccccc4c3)CC2)cc1 [Compound 2] | 7.147 | 1940 | < 75.8 | 
O=C(NO)c1cccc(CN2CCN(S(=O)(=O)c3ccc4ccccc4c3)CC2)c1 [Compound 7] | <5 |  |  | 
O=C(NO)c1ccc(NC(=O)N2CCN(S(=O)(=O)c3ccc4ccccc4c3)CC2)cc1 [Compound 8] | 7.587 | 2280 | > 454 | 
O=C(NO)c1cnc(N2CCN(S(=O)(=O)N3CCOCC3)CC2)nc1 [Compound 14] | 6.621 | 5790 | > 454 | 
COc1cccc(-c2ccc(S(=O)(=O)N3CCN(c4ncc(C(=O)NO)cn4)CC3)cc2)c1 [Compound 15] | 7.332 | 107 | 75.8 to 454 (≈ 35.6 to 213 µg/mL) | 
O=C(NCCO)c1ccc(N2CCN(S(=O)(=O)c3ccc4ccccc4c3)CC2)cc1 [Compound 16] | <5 | > 10000 |  | 
Nc1ccccc1NC(=O)c1ccc(N2CCN(S(=O)(=O)c3ccc4ccccc4c3)CC2)cc1 [Compound 17] | <5 | 764 | < 75.8 | 
NCCNC(=O)c1ccc(N2CCN(S(=O)(=O)c3ccc4ccccc4c3)CC2)cc1 [Compound 18] | <5 | 4080 | < 75.8 | 
O=C(CS)Nc1ccc(N2CCN(S(=O)(=O)c3ccc4ccccc4c3)CC2)cc1 [Compound 19] | <5 | > 10000 | < 75.8 | 
O=C(NO)c1cc([N+](=O)[O-])ccc1N1CCN(S(=O)(=O)c2ccc(Cl)s2)CC1 [Compound 22] | <5 |  |  | 
CS(=O)(=O)c1ccccc1S(=O)(=O)N1CCN(c2ccc(C(=O)NO)cc2)CC1 [Compound 60] | 6.247 | 4530 | > 454 | 
O=C(NO)c1ccc(N2CCN(S(=O)(=O)c3cc(C(F)(F)F)cc(C(F)(F)F)c3)CC2)cc1 [Compound 75] | <5 | 6870 |  | 
COc1ccc(OC)c(S(=O)(=O)N2CCN(c3ccc(C(=O)NO)cc3)CC2)c1 [Compound 77] | 5.937 | 7100 |  | 
O=C1CCC(C(=O)Nc2ccc(N3CCN(S(=O)(=O)c4ccc5ccccc5c4)CC3)cc2)N1 (stereo not shown) [Compound 84] | <5 | > 10000 |  | 
Cc1cnc(C(=O)Nc2ccc(N3CCN(S(=O)(=O)c4ccc5ccccc5c4)CC3)cc2)cn1 [Compound 85] | <5 | > 10000 |  | 
O=C(Nc1ccc(N2CCN(S(=O)(=O)c3ccc4ccccc4c3)CC2)cc1)c1ccc(=O)[nH]c1 [Compound 86] | <5 | > 10000 |  | 
O=C(Nc1ccc(N2CCN(S(=O)(=O)c3ccc4ccccc4c3)CC2)cc1)c1ccc[nH]c1=O [Compound 87] | <5 | > 10000 |  | 
O=C(NO)c1ccc(C(=O)N2CCN(S(=O)(=O)c3ccc4ccccc4c3)CC2)cc1 [Compound 89] | 6.423 | 6070 |  | 
CC(C)(C)c1ccc(S(=O)(=O)N2CCN(c3ncc(C(=O)NO)cn3)CC2)cc1 [Compound 92] | 7.876 | 723 |  | 
O=C(NO)c1cnc(N2CCN(S(=O)(=O)c3ccc4c(Cl)cccc4c3)CC2)nc1 [Compound 97] | 7.938 | 125 |  | 
COc1ccc(-c2ccc(S(=O)(=O)N3CCN(c4ncc(C(=O)NO)cn4)CC3)cc2)cc1OC [Compound 101] | 6.671 | 101 |  | 
O=C(NO)c1cnc(N2CCN(S(=O)(=O)c3ccc(-c4ccsc4)cc3)CC2)nc1 [Compound 104] | 8.152 | 58.5 |  | 
